# Tests used:
# [1] = Adverse events on nivolumab second-line therapy for metastatic pulmonary adenocarcinoma; type: in vivo, human; conditions: after 2 treatments with nivolumab (4 weeks after treatment initiation)
# Text: Myositis was suspected due to increased creatine kinase levels and confirmed by muscle biopsy. Myocarditis was confirmed with troponin increase, premature ventricular contractions and deterioration of left-ventricular ejection fraction with no signs of acute coronary syndrome on angiogram.
# [2] = Eleven ICI patients with irAE treated with ruxolitinib in combination with corticosteroids and abatacept
# [3] = human, in vivo; cited from earlier work
compound,measurement,setting,value
nivolumab: PD-1 inhibitor: IgG4 PD1 antibody,adverse events developed,[1],"developed myalgia, diplopia and bilateral ptosis"
"N#CC[C@H](C1CCCC1)n1cc(-c2ncnc3[nH]ccc23)cn1 [Ruxolitinib, (3R)-3-Cyclopentyl-3-[4-(7H-pyrrolo[2,3-d]pyrimidin-4-yl)pyrazol-1-yl]propanenitrile]",effect on tumor progression,"human, in vivo",no effect
same,tumor progression,"human, in vivo",no evidence of tumor progression
same,relief of myotoxicity,"oral ruxolitinib, summary of the case",symptomatic relief
same,oculomotor disorders,"person, ruxolitinib 15 mg twice daily",improvement
same,troponin,"person, ruxolitinib 15 mg twice daily, corticosteroids tapered",prompt decrease
same,myotoxicity outcome,ruxolitinib continued for 1 month at 15 mg twice daily,complete resolution
same,deaths not related to irAE (hemorrhagic choc n=1; COVID19 n=2),"[2]; first 3 months follow-up, 11 patients",three
same,evolution of concurrent irAE,"[2]; first 3 months follow-up, 11 patients, myasthenia like symptoms, hepatitis, thyroiditis",evolved favorably
same,death related to an irAE,"[2]; human, in vivo",no death
abatacept,effect in patients with myotoxicity,[3],positive effect
